In assay [1] the target is Mitogen-activated protein kinase kinase kinase kinase 4 (Homo sapiens) (UniProt O95819). The assay can be described thus: Inhibition of human HGK catalytic domain expressed in baculovirus assessed as substrate phosphorylation using fluorescence-labelled peptides as substrate at 2 uM after 90 mins by microfluidic peptide phosphorylation assay.
Assay [2] has as its target T1, Testis-specific serine/threonine-protein kinase 2 (Homo sapiens) (UniProt Q96PF2).
T1 sequence (whole entry): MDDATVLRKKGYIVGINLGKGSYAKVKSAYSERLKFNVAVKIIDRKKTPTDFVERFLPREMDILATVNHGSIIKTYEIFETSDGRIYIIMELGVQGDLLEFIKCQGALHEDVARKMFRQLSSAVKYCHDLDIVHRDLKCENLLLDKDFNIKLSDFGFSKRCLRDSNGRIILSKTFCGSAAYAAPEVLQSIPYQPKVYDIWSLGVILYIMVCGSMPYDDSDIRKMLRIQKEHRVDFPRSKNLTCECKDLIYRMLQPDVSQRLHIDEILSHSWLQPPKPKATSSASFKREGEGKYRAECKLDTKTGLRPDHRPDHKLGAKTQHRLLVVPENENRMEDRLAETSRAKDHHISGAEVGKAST
The assay can be described thus: Inhibition of human full length TSSK2 expressed in baculovirus assessed as substrate phosphorylation using fluorescence-labelled peptides as substrate at 0.2 uM after 90 mins by microfluidic peptide phosphorylation assay.

Assay [3] deals with Tyrosine-protein kinase Lck (Homo sapiens) (UniProt P06239). The assay can be described thus: Inhibition of human full length LCK expressed in baculovirus assessed as substrate phosphorylation using fluorescence-labelled peptides as substrate at 0.2 uM after 90 mins by microfluidic peptide phosphorylation assay.
Tyrosine-protein kinase Lck (Homo sapiens), sequence (P06239 2-509 limits assumed): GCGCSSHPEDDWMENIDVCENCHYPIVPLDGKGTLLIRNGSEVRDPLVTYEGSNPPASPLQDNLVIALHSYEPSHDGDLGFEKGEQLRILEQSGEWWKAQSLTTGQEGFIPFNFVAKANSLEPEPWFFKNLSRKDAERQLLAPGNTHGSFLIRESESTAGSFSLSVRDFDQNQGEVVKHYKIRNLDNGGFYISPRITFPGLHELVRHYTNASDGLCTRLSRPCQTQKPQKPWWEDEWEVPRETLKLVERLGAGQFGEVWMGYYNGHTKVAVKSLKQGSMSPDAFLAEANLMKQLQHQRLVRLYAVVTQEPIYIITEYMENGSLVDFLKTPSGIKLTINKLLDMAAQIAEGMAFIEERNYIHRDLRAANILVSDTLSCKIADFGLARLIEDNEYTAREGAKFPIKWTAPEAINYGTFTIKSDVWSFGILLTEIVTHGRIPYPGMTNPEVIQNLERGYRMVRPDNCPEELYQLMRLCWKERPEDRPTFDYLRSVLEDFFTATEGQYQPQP
The target of assay [4] is Casein kinase I isoform alpha (Homo sapiens) (UniProt P48729). The assay can be described thus: Inhibition of human full length CSNK1A1 expressed in baculovirus assessed as substrate phosphorylation using fluorescence-labelled peptides as substrate at 0.06 uM after 90 mins by microfluidic peptide phosphorylation assay.
Casein kinase I isoform alpha (Homo sapiens), sequence (P48729 2-337 limits assumed): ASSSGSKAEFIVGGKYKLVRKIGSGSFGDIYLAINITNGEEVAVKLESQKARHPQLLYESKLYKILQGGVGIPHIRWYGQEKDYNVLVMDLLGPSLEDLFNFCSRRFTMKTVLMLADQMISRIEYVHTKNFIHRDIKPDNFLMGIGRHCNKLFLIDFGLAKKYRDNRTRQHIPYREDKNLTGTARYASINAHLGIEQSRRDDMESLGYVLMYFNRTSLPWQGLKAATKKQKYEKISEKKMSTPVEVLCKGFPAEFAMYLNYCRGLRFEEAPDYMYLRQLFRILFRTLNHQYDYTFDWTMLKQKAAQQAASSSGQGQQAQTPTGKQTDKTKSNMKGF
For assay [5], the target named is Cyclin-dependent kinase 2 (Homo sapiens) (UniProt P24941). The assay can be described thus: Inhibition of human full length CDK2 expressed in baculovirus assessed as substrate phosphorylation using fluorescence-labelled peptides as substrate at 0.06 uM after 90 mins by microfluidic peptide phosphorylation assay.
For assay [6], the target named is T2, cGMP-dependent protein kinase 1 (Homo sapiens) (UniProt Q13976).
T2 sequence (whole entry): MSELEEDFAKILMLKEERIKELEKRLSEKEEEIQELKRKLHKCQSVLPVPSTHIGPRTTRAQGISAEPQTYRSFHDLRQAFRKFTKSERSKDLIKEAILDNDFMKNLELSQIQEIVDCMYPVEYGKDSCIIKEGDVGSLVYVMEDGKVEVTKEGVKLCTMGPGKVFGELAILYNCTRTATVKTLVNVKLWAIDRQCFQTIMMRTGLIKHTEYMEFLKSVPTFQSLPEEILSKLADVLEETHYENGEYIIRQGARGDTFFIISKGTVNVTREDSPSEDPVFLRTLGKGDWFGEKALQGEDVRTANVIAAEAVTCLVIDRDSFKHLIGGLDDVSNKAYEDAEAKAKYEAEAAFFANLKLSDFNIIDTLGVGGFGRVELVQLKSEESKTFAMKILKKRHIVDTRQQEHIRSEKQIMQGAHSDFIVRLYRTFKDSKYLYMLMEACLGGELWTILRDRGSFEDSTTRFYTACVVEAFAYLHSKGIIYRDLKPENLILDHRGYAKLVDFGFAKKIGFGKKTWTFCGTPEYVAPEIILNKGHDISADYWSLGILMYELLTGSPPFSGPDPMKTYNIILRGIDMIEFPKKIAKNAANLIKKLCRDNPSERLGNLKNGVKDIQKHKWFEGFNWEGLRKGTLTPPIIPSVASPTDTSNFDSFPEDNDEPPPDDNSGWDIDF
The assay can be described thus: Inhibition of human full length PKG-1a expressed in baculovirus assessed as substrate phosphorylation using fluorescence-labelled peptides as substrate at 95 uM after 90 mins by microfluidic peptide phosphorylation assay.

The target in assay [7] is Rho-associated protein kinase 2 (Homo sapiens) (UniProt O75116). The assay is described as follows: Inhibition of human ROCK2 catalytic domain expressed in baculovirus assessed as substrate phosphorylation using fluorescence-labelled peptides as substrate at 95 uM after 90 mins by microfluidic peptide phosphorylation assay.
Rho-associated protein kinase 2 (Homo sapiens), sequence (O75116 whole entry, looked up, the tested form may be a part): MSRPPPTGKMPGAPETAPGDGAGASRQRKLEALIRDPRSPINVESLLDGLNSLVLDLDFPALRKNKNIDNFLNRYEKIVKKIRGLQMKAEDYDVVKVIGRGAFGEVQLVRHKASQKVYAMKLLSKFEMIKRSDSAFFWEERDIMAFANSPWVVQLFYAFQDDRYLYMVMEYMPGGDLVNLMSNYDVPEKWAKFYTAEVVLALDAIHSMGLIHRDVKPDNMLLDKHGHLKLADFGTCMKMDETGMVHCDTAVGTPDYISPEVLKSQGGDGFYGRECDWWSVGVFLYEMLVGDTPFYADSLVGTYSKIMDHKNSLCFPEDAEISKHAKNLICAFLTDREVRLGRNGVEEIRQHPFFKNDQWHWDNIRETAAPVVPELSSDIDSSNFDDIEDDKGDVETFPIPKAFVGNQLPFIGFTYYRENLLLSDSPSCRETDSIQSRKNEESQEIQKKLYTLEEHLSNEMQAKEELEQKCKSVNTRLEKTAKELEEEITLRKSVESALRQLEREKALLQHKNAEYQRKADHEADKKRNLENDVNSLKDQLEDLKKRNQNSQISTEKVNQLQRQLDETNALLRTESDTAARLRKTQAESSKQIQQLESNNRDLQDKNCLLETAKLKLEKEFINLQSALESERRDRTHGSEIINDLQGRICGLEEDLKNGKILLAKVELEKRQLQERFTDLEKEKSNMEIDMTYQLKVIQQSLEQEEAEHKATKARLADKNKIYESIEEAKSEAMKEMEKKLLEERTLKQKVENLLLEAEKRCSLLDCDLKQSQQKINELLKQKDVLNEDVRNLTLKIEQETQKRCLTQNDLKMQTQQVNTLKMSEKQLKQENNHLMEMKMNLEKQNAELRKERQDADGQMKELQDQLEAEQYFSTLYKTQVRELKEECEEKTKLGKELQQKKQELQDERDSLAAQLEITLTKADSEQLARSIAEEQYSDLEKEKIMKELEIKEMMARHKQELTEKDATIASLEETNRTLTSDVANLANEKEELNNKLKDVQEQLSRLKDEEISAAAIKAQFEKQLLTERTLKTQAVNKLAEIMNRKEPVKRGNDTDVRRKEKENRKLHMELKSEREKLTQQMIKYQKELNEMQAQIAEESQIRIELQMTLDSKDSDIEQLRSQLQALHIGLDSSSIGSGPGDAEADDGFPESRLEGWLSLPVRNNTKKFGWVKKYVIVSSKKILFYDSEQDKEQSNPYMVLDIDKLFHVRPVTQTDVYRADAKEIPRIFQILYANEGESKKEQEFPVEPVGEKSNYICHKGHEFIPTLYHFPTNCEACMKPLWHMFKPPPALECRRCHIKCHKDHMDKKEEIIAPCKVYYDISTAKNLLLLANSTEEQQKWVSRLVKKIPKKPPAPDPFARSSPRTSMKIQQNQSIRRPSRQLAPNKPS
Assay [8] deals with Mitogen-activated protein kinase kinase kinase kinase 4 (Homo sapiens) (UniProt O95819). The assay can be described thus: Inhibition of human HGK catalytic domain expressed in baculovirus assessed as substrate phosphorylation using fluorescence-labelled peptides as substrate at 8 uM after 90 mins by microfluidic peptide phosphorylation assay.
The target of assay [9] is Fibroblast growth factor receptor 1 (Homo sapiens) (UniProt P11362). The assay is described as follows: Inhibition of human FGFR1 catalytic domain expressed in baculovirus assessed as substrate phosphorylation using fluorescence-labelled peptides as substrate at 8 uM after 90 mins by microfluidic peptide phosphorylation assay.
For assay [10], the target named is MAP kinase-activated protein kinase 3 (Homo sapiens) (UniProt Q16644). The assay is described as follows: Inhibition of human full length MAPKAPK3 expressed in Escherichia coli cell assessed as substrate phosphorylation using fluorescence-labelled peptides as substrate at 70 uM after 90 mins by microfluidic peptide phosphorylation assay.
MAP kinase-activated protein kinase 3 (Homo sapiens), sequence (Q16644 whole entry, looked up): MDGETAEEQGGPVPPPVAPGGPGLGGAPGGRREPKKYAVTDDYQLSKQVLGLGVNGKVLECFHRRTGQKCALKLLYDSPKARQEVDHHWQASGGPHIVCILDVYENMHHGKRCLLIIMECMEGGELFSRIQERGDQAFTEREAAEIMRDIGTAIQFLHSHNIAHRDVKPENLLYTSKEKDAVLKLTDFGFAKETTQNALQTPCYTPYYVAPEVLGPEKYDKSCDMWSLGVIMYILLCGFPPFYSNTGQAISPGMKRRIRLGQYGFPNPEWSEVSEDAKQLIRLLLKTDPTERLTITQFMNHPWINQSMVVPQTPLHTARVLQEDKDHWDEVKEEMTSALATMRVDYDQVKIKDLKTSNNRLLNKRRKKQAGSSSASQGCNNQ
Assay [11] addresses T3, Mitogen-activated protein kinase 12 (Homo sapiens) (UniProt P53778).
T3 sequence (whole entry): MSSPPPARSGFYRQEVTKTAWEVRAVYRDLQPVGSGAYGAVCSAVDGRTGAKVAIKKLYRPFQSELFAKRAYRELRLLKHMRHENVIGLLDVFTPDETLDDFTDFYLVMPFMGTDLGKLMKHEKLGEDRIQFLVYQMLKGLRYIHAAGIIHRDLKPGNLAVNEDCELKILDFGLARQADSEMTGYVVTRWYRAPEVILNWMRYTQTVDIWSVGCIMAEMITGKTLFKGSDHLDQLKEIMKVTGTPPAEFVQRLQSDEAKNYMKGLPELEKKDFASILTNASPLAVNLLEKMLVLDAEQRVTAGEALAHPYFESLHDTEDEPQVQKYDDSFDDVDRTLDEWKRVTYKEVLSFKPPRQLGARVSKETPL
The assay can be described thus: Inhibition of human full length p38 gamma expressed in Escherichia coli cell assessed as substrate phosphorylation using fluorescence-labelled peptides as substrate at 70 uM after 90 mins by microfluidic peptide phosphorylation assay.

In assay [12] the target is Ribosomal protein S6 kinase alpha-5 (Homo sapiens) (UniProt O75582). The assay is described as follows: Inhibition of human full length MSK1 expressed in baculovirus assessed as substrate phosphorylation using fluorescence-labelled peptides as substrate at […] after 90 mins by microfluidic peptide phosphorylation assay.
In assay [13] the target is Tyrosine-protein kinase Lyn (Homo sapiens) (UniProt P07948). The assay is described as follows: Inhibition of human full length LYN expressed in baculovirus assessed as substrate phosphorylation using fluorescence-labelled peptides as substrate at […] after 90 mins by microfluidic peptide phosphorylation assay.
Tyrosine-protein kinase Lyn (Homo sapiens), sequence (P07948 2-512 limits assumed): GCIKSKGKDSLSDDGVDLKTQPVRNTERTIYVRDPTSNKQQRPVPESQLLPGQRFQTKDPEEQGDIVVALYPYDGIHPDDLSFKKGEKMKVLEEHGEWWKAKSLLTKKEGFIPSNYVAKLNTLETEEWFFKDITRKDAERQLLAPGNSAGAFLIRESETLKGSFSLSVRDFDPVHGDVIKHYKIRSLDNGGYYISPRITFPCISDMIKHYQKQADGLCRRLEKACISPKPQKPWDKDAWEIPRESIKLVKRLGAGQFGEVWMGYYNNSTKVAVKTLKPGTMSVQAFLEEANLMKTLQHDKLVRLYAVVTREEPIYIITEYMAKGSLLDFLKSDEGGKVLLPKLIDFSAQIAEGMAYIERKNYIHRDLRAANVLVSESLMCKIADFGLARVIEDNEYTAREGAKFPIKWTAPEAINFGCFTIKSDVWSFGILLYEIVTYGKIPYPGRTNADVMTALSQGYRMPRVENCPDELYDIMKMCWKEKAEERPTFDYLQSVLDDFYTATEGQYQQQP
Assay [14] addresses Tyrosine-protein kinase Fyn (Homo sapiens) (UniProt P06241). The assay can be described thus: Inhibition of human full length FYN expressed in baculovirus assessed as substrate phosphorylation using fluorescence-labelled peptides as substrate at 1000 uM after 90 mins by microfluidic peptide phosphorylation assay.
The target in assay [15] is Insulin receptor (Homo sapiens) (UniProt P06213). The assay is described as follows: Inhibition of human INSR catalytic domain expressed in baculovirus assessed as substrate phosphorylation using fluorescence-labelled peptides as substrate at 1000 uM after 90 mins by microfluidic peptide phosphorylation assay.

The structures appear in SMILES notation.

Mitogen-activated protein kinase kinase kinase kinase 4 (Homo sapiens), sequence (O95819 2-1239 limits assumed): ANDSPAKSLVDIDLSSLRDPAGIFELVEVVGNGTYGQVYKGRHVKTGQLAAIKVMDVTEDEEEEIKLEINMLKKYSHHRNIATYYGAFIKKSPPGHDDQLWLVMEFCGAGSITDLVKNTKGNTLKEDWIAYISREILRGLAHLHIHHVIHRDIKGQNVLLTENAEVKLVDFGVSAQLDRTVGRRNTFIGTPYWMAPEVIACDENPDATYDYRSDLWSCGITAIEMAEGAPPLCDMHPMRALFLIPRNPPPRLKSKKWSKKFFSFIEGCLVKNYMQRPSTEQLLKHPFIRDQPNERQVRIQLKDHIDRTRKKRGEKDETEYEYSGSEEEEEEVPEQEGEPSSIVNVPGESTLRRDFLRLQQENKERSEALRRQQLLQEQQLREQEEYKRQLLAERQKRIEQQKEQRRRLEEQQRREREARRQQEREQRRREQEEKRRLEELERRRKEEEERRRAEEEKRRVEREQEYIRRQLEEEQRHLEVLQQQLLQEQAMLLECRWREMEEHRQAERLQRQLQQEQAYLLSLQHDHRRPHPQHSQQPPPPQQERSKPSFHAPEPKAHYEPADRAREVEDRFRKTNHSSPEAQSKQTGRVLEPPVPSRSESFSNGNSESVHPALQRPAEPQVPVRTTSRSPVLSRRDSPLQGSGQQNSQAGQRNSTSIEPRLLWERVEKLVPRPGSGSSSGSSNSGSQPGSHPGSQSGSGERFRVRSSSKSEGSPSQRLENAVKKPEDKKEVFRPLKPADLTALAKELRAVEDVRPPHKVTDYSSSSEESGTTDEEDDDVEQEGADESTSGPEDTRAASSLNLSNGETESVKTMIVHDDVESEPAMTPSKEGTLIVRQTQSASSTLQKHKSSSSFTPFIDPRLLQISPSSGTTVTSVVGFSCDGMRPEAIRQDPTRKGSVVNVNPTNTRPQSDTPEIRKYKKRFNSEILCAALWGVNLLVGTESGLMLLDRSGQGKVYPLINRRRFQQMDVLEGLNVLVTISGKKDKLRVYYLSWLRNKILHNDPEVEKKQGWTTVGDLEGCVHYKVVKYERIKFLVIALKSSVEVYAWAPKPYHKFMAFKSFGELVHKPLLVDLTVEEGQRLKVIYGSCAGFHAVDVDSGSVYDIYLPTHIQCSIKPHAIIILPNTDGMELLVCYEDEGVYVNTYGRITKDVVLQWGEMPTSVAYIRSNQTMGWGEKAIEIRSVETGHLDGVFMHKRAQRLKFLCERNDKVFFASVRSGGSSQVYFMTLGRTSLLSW
Tyrosine-protein kinase Fyn (Homo sapiens), sequence (P06241 2-537 limits assumed): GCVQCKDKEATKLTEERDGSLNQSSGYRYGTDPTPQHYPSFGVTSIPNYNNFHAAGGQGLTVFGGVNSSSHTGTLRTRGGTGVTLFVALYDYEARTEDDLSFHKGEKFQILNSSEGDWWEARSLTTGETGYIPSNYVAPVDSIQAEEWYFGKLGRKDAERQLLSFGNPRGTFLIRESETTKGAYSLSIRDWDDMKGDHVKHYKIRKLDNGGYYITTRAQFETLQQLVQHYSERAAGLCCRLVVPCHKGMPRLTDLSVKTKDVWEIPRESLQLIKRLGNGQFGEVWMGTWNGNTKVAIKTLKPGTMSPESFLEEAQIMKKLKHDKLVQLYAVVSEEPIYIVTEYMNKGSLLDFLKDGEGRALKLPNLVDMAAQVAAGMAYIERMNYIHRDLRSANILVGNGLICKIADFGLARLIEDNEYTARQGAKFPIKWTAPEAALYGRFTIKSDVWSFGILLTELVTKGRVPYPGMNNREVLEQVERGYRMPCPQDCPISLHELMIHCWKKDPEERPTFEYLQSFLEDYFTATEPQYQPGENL

As for `NC1CCN(c2ncnc3[nH]ccc23)CC1`, the inhibition in [1] was 0%.

Turning to `Clc1ccc(C2(c3ccc(-c4ncnc5[nH]cnc45)cc3)CCNCC2)cc1`, the inhibition in assay [2] was found to be 7%; in assay [3], 35%.

For the compound `NC1(Cc2ccc(Cl)cc2)CCN(c2ncnc3[nH]ccc23)CC1`, the inhibition in [4] and in [5] was 1% throughout.

As for `NCCc1ccc(-c2ncnc3[nH]cnc23)cc1`, the results for the inhibition in assay [6] and in assay [7] were 92% and 93.5%, respectively.

Turning to `NCC1CCN(c2ncnc3[nH]ccc23)CC1`, the inhibition in assay [8] is 11.5%; in assay [9], 36.5%.

For `CNCc1ccc(-c2ncnc3[nH]cnc23)cc1`, the inhibition in [10] worked out at 1.5%; in assay [11], 15%.

In the case of `COC(=O)c1cnc(Nc2cnc(C#N)cn2)cc1NCC1CCNCC1`, the inhibition in assay [12] and in [13] was 8% throughout.

On to `c1cnc2[nH]ccc2c1`, for which the results for the inhibition in [14] and in assay [15] were 24% and 29%, respectively.

These data come from ChEMBL document CHEMBL3132769, “Fragment growing to retain or alter the selectivity of anchored kinase hinge-binding fragments” (Medchemcomm, 2014).
